Measured values published in US10138253B2, “Imidazopyridine macrocycles as inhibitors of human immunodeficiency virus replication” (priority 2015, dated 2018).
pEC50: −log10 of the molar value. Read-outs that look alike come from different tables or passages of the source.

System: NL-RLuc virus
Assay: Inhibition of HIV replication (NL-RLuc virus, luciferase readout, MT-2 cells)
Format: cell-based
Settings: Human immunodeficiency virus 1, MT2, 120 h; for pEC50: read-out: Activity; for EC50: read-out: EC50 μM
Text: Inhibition of HIV Replication:
A recombinant NL-RLuc proviral clone was constructed in which a section of the nef gene from NL4-3 was replaced with the Renilla Luciferase gene. This virus is fully infectious and can undergo multiple cycles of replication in cell culture. In addition, the luciferous reporter provides a simple and easy method for quantitating the extent of virus growth and consequently, the antiviral activity of test compounds. The plasmid pNLRLuc contains the proviral NL-Rluc DNA cloned into pUC18 at the PvuII site. The NL-RLuc virus was prepared by transfection of 293T cells with the plasmid pNLRLuc. Transfections were performed using the LipofectAMINE PLUS kit from Invitrogen (Carlsbad, Calif.) according to the manufacturer and the virus generated was titered in MT-2 cells. For susceptibility analyses, the titrated virus was used to infect MT-2 cells in the presence of compound, and after 5 days of incubation, cells were processed and quantitated for virus growth by the amount of expressed luciferase. Assay media was RPMI 1640 supplemented with 10% heat inactivated fetal bovine serum (FBS), 100 units/ml penicillin G/100 units/ml streptomycin, 10 mM HEPES buffer pH 7.55 and 2 mM L-glutamine. The results from at least 2 experiments were used to calculate the EC50 values. Luciferase was quantitated using the Dual Luciferase kit from Promega (Madison, Wis.). Susceptibility of viruses to compounds was determined by incubation in the presence of serial dilutions of the compound. The 50% effective concentration (EC50) was calculated by using the exponential form of the median effect equation where (Fa)=1/[1+(ED50/drug conc.)^m] (Johnson V A, Byington R T. Infectivity Assay. In Techniques in HIV Research. ed. Aldovini A, Walker B D. 71-76. New York: Stockton Press. 1990). Activity equal to A refers to a compound having an EC50≤100 nM, while B and C denote compounds having an EC50 between 100 nM and luM (B) or >1 uM (C).

Compound	pEC50	EC50 [µM]
Cc1c([C@H](OC(C)(C)C)C(=O)O)c2n3cc(nc3c1C(C)O)-c1cccc(c1)-c1cc(F)c(F)cc1O[C@@H](C)COCCOC1(C)CCN2CC1 (single isomer, unassigned) [Example 16]	> 7.00	0.002
Cc1cc2nc3cn2c(c1[C@H](OC(C)(C)C)C(=O)O)N1CCC(C)(CC1)OCCOC[C@H](C)Oc1cc(F)c(F)cc1-c1cccc-3c1 [Example 1, (2S)-2-(tert-Butoxy)-2-[(22S)-17,18-difluoro-4,22,28-trimethyl-21,24,27-trioxa-1,7,34-triazahexacyclo[26.2.2.1^6,^9.1^1^0,^1^4.0^2,^7.0^1^5,^2^0]tetratriaconta-2,4,6(34),8,10(33),11,13,15(20),16,18-decaen-3-yl]acetic Acid]	> 7.00	0.001
Cc1c([C@H](OC(C)(C)C)C(=O)O)c2n3cc(nc3c1C)-c1cccc(c1)-c1cc(F)c(F)cc1O[C@@H](C)COCCOC1(C)CCN2CC1 [Example 2, (2S)-2-(tert-Butoxy)-2-[(22S)-17,18-difluoro-4,5,22,28-tetramethyl-21,24,27-trioxa-1,7,34-triazahexacyclo[26.2.2.1^6,^9.1^1^0,^1^4.0^2,^7.0^1^5,^2^0]tetratriaconta-2,4,6(34),8,10(33),11,13,15(20),16,18-decaen-3-yl]acetic Acid]	> 7.00	–
Cc1c([C@@H](OC(C)(C)C)C(=O)O)c2n3cc(nc3c1C)-c1cccc(c1)-c1cc(F)c(F)cc1O[C@@H](C)COCCOC1(C)CCN2CC1 [Example 3, (2R)-2-(tert-butoxy)-2-((6S,Z)-44,45-difluoro-14,27,6-trimethyl-5,8,11-trioxa-2(5,2)-imidazo[1,2-a]pyridina-1(1,4)-piperidina-3(1,3),4(1,2)-dibenzenacycloundecaphane-26-yl)acetic Acid]	6.00 to 7.00	0.305
CCC(C)(C)O[C@H](C(=O)O)c1c(C)c(C)c2nc3cn2c1N1CCC(C)(CC1)OCCOC[C@H](C)Oc1cc(F)c(F)cc1-c1cccc-3c1 [Example 4, (2S)-2-[(22S)-17,18-Difluoro-4,5,22,28-tetramethyl-21,24,27-trioxa-1,7,34-triazahexacyclo[26.2.2.1^6,^9.1^1^0,^1^4.0^2,^7.0^1^5,^2^0]tetratriaconta-2,4,6(34),8,10(33),11,13,15(20),16,18-decaen-3-yl]-2-[(2-methylbutan-2-yl)oxy]acetic Acid]	> 7.00	–
Cc1c([C@H](O)C(=O)O)c2n3cc(nc3c1C)-c1cccc(c1)-c1cc(F)c(F)cc1O[C@@H](C)COCCOC1(C)CCN2CC1 [Example 5, (2S)-2-[(22S)-17,18-Difluoro-4,5,22,28-tetramethyl-21,24,27-trioxa-1,7,34-triazahexacyclo[26.2.2.1^6,^9.1^1^0,^1^4.0^2,^7.0^1^5,^2^0]tetratriaconta-2,4,6(34),8,10(33),11,13,15(20),16,18-decaen-3-yl]-2-hydroxyacetic Acid]	6.00 to 7.00	0.283
Cc1c([C@H](OC(C)(C)C)C(=O)O)c2n3cc(nc3c1CO)-c1cccc(c1)-c1cc(F)c(F)cc1O[C@@H](C)COCCOC1(C)CCN2CC1 [Example 6, (2S)-2-(tert-Butoxy)-2-[(22S)-17,18-difluoro-5-(hydroxymethyl)-4,22,28-trimethyl-21,24,27-trioxa-1,7,34-triazahexacyclo[26.2.2.1^6,^9.1^1^0,^1^4.0^2,^7.0^1^5,^2^0]tetratriaconta-2,4,6(34),8,10(33),11,13,15(20),16,18-decaen-3-yl]acetic Acid]	> 7.00	0.002
Cc1cc2nc3c(Cl)n2c(c1[C@H](OC(C)(C)C)C(=O)O)N1CCC(C)(CC1)OCCOC[C@H](C)Oc1cc(F)c(F)cc1-c1cccc-3c1 [Example 7, (2S)-2-(tert-Butoxy)-2-[(22S)-8-chloro-17,18-difluoro-4,22,28-trimethyl-21,24,27-trioxa-1,7,34-triazahexacyclo[26.2.2.1^6,^9.1^1^0,^1^4.0^2,^7.0^1^5,^2^0]tetratriaconta-2,4,6(34),8,10(33),11,13,15(20),16,18-decaen-3-yl]acetic Acid]	> 7.00	–
Cc1c([C@H](OC(C)(C)C)C(=O)O)c2n3c(Cl)c(nc3c1C)-c1cccc(c1)-c1cc(F)c(F)cc1O[C@@H](C)COCCOC1(C)CCN2CC1 [Example 8, (2S)-2-(tert-Butoxy)-2-[(22S)-8-chloro-17,18-difluoro-4,5,22,28-tetramethyl-21,24,27-trioxa-1,7,34-triazahexacyclo[26.2.2.1^6,^9.1^1^0,^1^4.0^2,^7.0^1^5,^2^0]tetratriaconta-2,4,6(34),8,10(33),11,13,15(20),16,18-decaen-3-yl]acetic Acid]	> 7.00	–
Cc1c([C@H](OC(C)(C)C)C(=O)O)c2n3c(Cl)c(nc3c1CO)-c1cccc(c1)-c1cc(F)c(F)cc1O[C@@H](C)COCCOC1(C)CCN2CC1 [Example 9, (2S)-2-(tert-Butoxy)-2-[(22S)-8-chloro-17,18-difluoro-5-(hydroxymethyl)-4,22,28-trimethyl-21,24,27-trioxa-1,7,34-triazahexacyclo[26.2.2.1^6,^9.1^1^0,^1^4.0^2,^7.0^1^5,^2^0]tetratriaconta-2,4,6(34),8,10(33),11,13,15(20),16,18-decaen-3-yl]acetic Acid]	> 7.00	–
Cc1c([C@H](OC(C)(C)C)C(=O)O)c2n3c(Cl)c(nc3c1Cn1cccn1)-c1cccc(c1)-c1cc(F)c(F)cc1O[C@@H](C)COCCOC1(C)CCN2CC1 [Example 10, (2S)-2-(tert-Butoxy)-2-[(22S)-8-chloro-17,18-difluoro-4,22,28-trimethyl-5-(1H-pyrazol-1-ylmethyl)-21,24,27-trioxa-1,7,34-triazahexacyclo[26.2.2.1^6,^9.1^1^0,^1^4.0^2,^7.0^1^5,^2^0]tetratriaconta-2,4,6(34),8,10(33),11,13,15(20),16,18-decaen-3-yl]acetic acid]	> 7.00	0.005
COCc1c(C)c([C@H](OC(C)(C)C)C(=O)O)c2n3c(Cl)c(nc13)-c1cccc(c1)-c1cc(F)c(F)cc1O[C@@H](C)COCCOC1(C)CCN2CC1 [Example 11, (2S)-2-(tert-Butoxy)-2-[(22S)-8-chloro-17,18-difluoro-5-(methoxymethyl)-4,22,28-trimethyl-21,24,27-trioxa-1,7,34-triazahexacyclo[26.2.2.1^6,^9.1^1^0,^1^4.0^2,^7.0^1^5,^2^0]tetratriaconta-2,4,6(34),8,10(33),11,13,15(20),16,18-decaen-3-yl]acetic Acid]	> 7.00	–
Cc1c([C@H](OC(C)(C)C)C(=O)O)c2n3c(Cl)c(nc3c1Cn1ccnn1)-c1cccc(c1)-c1cc(F)c(F)cc1O[C@@H](C)COCCOC1(C)CCN2CC1 [Example 12, (2S)-2-(tert-Butoxy)-2-[(22S)-8-chloro-17,18-difluoro-4,22,28-trimethyl-5-(1H-1,2,3-triazol-1-ylmethyl)-21,24,27-trioxa-1,7,34-triazahexacyclo[26.2.2.1^6,^9.1^1^0,^1^4.0^2,^7.0^1^5,^2^0]tetratriaconta-2,4,6(34),8,10(33),11,13,15(20),16,18-decaen-3-yl]acetic Acid]	> 7.00	0.012
Cc1c([C@H](OC(C)(C)C)C(=O)O)c2n3c(Cl)c(nc3c1Cn1nccn1)-c1cccc(c1)-c1cc(F)c(F)cc1O[C@@H](C)COCCOC1(C)CCN2CC1 [Example 13, (2S)-2-(tert-butoxy)-2-[(22S)-8-chloro-17,18-difluoro-4,22,28-trimethyl-5-(2H-1,2,3-triazol-2-ylmethyl)-21,24,27-trioxa-1,7,34-triazahexacyclo[26.2.2.1^6,^9.1^1^0,^1^4.0^2,^7.0^1^5,^2^0]tetratriaconta-2,4,6(34),8,10(33),11,13,15(20),16,18-decaen-3-yl]acetic Acid]	> 7.00	–
C=C(C)c1c(C)c([C@H](OC(C)(C)C)C(=O)O)c2n3cc(nc13)-c1cccc(c1)-c1cc(F)c(F)cc1O[C@@H](C)COCCOC1(C)CCN2CC1 [Example 14, (2S)-2-(tert-Butoxy)-2-[(22S)-17,18-difluoro-4,22,28-trimethyl-5-(prop-1-en-2-yl)-21,24,27-trioxa-1,7,34-triazahexacyclo[26.2.2.1^6,^9.1^1^0,^1^4.0^2,^7.0^1^5,^2^0]tetratriaconta-2,4,6(34),8,10(33),11,13,15(20),16,18-decaen-3-yl]acetic Acid]	> 7.00	–
Cc1c([C@H](OC(C)(C)C)C(=O)O)c2n3c(C)c(nc3c1C)-c1cccc(c1)-c1cc(F)c(F)cc1O[C@@H](C)COCCOC1(C)CCN2CC1 [Example 15, (2S)-2-(tert-Butoxy)-2-[(22S)-17,18-difluoro-4,5,8,22,28-pentamethyl-21,24,27-trioxa-1,7,34-triazahexacyclo[26.2.2.1^6,^9.1^1^0,^1^4.0^2,^7.0^1^5,^2^0]tetratriaconta-2,4,6(34),8,10(33),11,13,15(20),16,18-decaen-3-yl]acetic Acid]	> 7.00	–
